Source: patent US7119072B2, “Macrocyclic peptides active against the hepatitis C virus” (Boehringer Ingelheim (Canada) Ltd., priority 2002, dated 2006)

Assay: In vivo oral absorption screen / pharmacokinetic assay in the rat
Settings: male, Sprague Dawley, rat plasma, dose of 5 mg/kg in Methocel:Tween20 (0.5%:0.3%), read-out: area under the curve (AUC)
Text: More explicitly, the following assay, an in vivo oral absorption screen, was used to determine plasma levels of test compounds in a rat after oral administration: The selection of compounds to be pooled into a “cassette” was based on their structural similarity and physicochemical properties. A solid phase extraction method applicable to all the selected compounds was established. Based on the initial testing where each compound was spiked into rat plasma and run through HPLC or HPLC/MS at a concentration of 0.5 μM, the retention time, ionic mass, and the possible separation among compounds by HPLC and/or HPLC/MS were used as basis for pooling 3–4 compounds into one “cassette”. Each “cassette” contains 3–4 compounds at 5 or 4 mg/kg for each compound. The cassettes were prepared as an oral suspension in 0.5% aqueous methylcellulose and 0.3% of polyoxyethylene (20) sorbiton monooleate (Tween-80). The dosing volume was 10 ml/kg via oral gavage. Male Sprague Dawley rats were fasted overnight in individual cages, with access to aqueous 10% dextrose. Two rats were dosed with each “cassette”. Plasma samples (˜1 ml) were collected at 1 and 2 h post-dosing from the 2 rats and pooled for extraction and analysis. […] Samples were analyzed by HPLC and HPLC/MS for comparison purpose. […]

SMILES | AUC [µM·h]
COc1ccc2c(O[C@@H]3C[C@H]4C(=O)N[C@]5(C(=O)O)C[C@H]5/C=C\CCCCC[C@H](NC(=O)OC5CCCC5)C(=O)N4C3)cc(-c3csc(NC4CCCC4)n3)nc2c1 [Compound 101] | 16
COc1ccc2c(O[C@@H]3C[C@H]4C(=O)N[C@]5(C(=O)O)C[C@H]5/C=C\CCCCC[C@H](NC(=O)OC5CCCC5)C(=O)N4C3)cc(-c3csc(NC4CCCCC4)n3)nc2c1 [Compound 102] | 18
